# Where “and” joins values, the source holds several entries; their conditions need not be identical. Identical values can stand only once.
# Key:
# obese Zucker fa/fa rats = experiment: Renal histopathology after 3 months dietary administration in obese Zucker fa/fa rats; assay type: in vivo, rat; design: key to Hydronephrosis (histopathological severity, kidney) / Chronic Nephropathy (histopathological severity, kidney): 0: None seen; ±: Minimal; +: Mild; + +: Moderate; + + +: Marked
# Experimental: Obese Zucker rats are known to develop chronic nephropathy in addition to hyperlipidaemia, hyperinsulinaemia and peripheral insulin resistance (Kasiske et al 1985).
# 5-[4- [2-(N-methyl-N-(2-pyridyl)amino)ethoxy]benzyl]thiazolidine-2,4-dione (herein after referred to as ‘test compound’) was administered to 2-3 month old obese Zucker fa/fa rats by dietary administration to provide a daily dose over a period of 3 months ranging from 2.0-7.0 μmole/kg body weight. A group of age-matched obese Zucker fa/fa rats were given the same diet without the addition of the test compound, as was a group of lean Fa/? rats. At the end of the study, all of the control Zucker fa/fa rats had chronic nephropathy which involved dilated tubules, atrophied or hyperplastic tubular epithelial cells, thickened tubular basement membranes, segmented glomeruli or global glomerulosclerosis.
# In the corresponding lean animals, 3/15 animals, a minimal degree of chronic nephropathy was seen.
# Characteristically this involved dilation of the kidney pelvis.
# [1] = test system: Zucker fatty (fa/fa) rats; experiment: Systolic blood pressure (tail cuff) in 9 month Zucker rat study; assay type: in vivo; details: for SYSTOLIC BLOOD PRESSURE: Zucker fatty rats
# Experimental: A second study was performed in Zucker rats over a period of 9 months to investigate the longitudinal effects of the drug on systolic blood pressure and various indices of renal function, two of which are exemplified here. In one arm of the study, the drug was given in the diet (50 μmole/kg of diet) from aged 6-7 weeks in Zucker fatty (fa/fa) rats, whilst in a second arm of the study, drug treatment as above was delayed until proteinuria had become established after 4 months, indicative of structural damage already present in the kidneys. A third group of Zucker fatty rats and a further group of lean rats were given diet alone throughout the period of study.
# After dosing with the test compound, at monthly intervals measurements were made of systolic blood pressure, urinary total protein and urinary N-acetyl β-D-glucosaminidase (NAG) activity.
# Rats were enclosed in custom-built restrainers and placed on a shelf in a warming cabinet, whose temperature was controlled at approximately 30° C. An inflatable cuff with integral pulse sensor was attached to the tail of each rat. After warming for 20-30 min the tail cuff was inflated and deflated automatically and a measurement of systolic blood pressure made using an IITC Non-Invasive Blood Pressure Monitor. This cycle was repeated several times for each rat until stable values of blood pressure were obtained.
# In the tables below, results are given as mean values for the group ±the standard error of the mean. Results have been analysed by one way ANOVA and significant differences from the Zucker fatty rat control group have been indicated by an asterisk.
# [2] = test system: Zucker fatty (fa/fa) rats; experiment: Urinary total protein (Bio-Rad dye-binding assay, 24 h urine) in 9 month Zucker rat study; assay type: in vivo; details: for URINARY PROTEIN CONCENTRATION: Zucker fatty rats, 50 μmol/kg of diet from age 6-7 weeks (prior to renal complications), mean ± SEM
# Experimental: A second study was performed in Zucker rats over a period of 9 months to investigate the longitudinal effects of the drug on systolic blood pressure and various indices of renal function, two of which are exemplified here. […] A third group of Zucker fatty rats and a further group of lean rats were given diet alone throughout the period of study. After dosing with the test compound, at monthly intervals measurements were made of systolic blood pressure, urinary total protein and urinary N-acetyl β-D-glucosaminidase (NAG) activity. Twenty-four hour urine collections, made in metabolism cages, were aliquoted and frozen at −70° C. until required for assay. Urinary protein concentration was measured using the Bio-Rad protein assay as modified for use in a 96-well microtitre plate. The assay is a dye-binding assay based on the differential colour change of a dye in response to various concentrations of protein (Bradford, Anal. Biochem., 72, 248, 1976). After a period of incubation with Dye Reagent, diluted urine samples are read at an optical density of 595 nm using a Molecular Devices multiplate reader.
# [3] = individual obese Zucker fa/fa rats, test compound in diet 2.0-7.0 μmole/kg body weight daily, 3 months
# [4] = Zucker fatty (fa/fa) rats treated from age 6-7 weeks for 9 months via the diet
structure (smiles),measurement,setting,value
"CN(CCOc1ccc(CC2SC(=O)NC2=O)cc1)c1ccccn1 (centres unmarked) [Test Compound, 5-[4-[2-(N-methyl-N-(2-pyridyl)amino)ethoxy]benzyl]thiazolidine-2,4-dione]","Chronic Nephropathy (histopathological severity, kidney)",obese Zucker fa/fa rats; [3],+ and ± (8×) and 0 and + +
same,"Hydronephrosis (histopathological severity, kidney)",obese Zucker fa/fa rats; [3],0
same,incidence and degree of chronic nephropathy,"obese Zucker fa/fa rats; obese Zucker fa/fa rats, 3 months in diet, compared to control Zucker fa/fa rats",reduction in the incidence and degree of chronic nephropathy
same,hydronephrosis,"obese Zucker fa/fa rats; obese Zucker fa/fa rats, 3 months in diet, control 4/9 mild-moderate",No hydronephrosis was seen
same,development of hypertension,[1]; [4],prevented the development of hypertension
same,SYSTOLIC BLOOD PRESSURE,"[1]; 50 μmol/kg of diet from age 6-7 weeks (prior to renal complications), treatment duration 0 months, mean ± SEM",102 ± 3 mm Hg
same,SYSTOLIC BLOOD PRESSURE,"[1]; 50 μmol/kg of diet from age 6-7 weeks (prior to renal complications), treatment duration 1 month, mean ± SEM",110 ± 3 mm Hg
same,SYSTOLIC BLOOD PRESSURE,"[1]; 50 μmol/kg of diet from age 6-7 weeks (prior to renal complications), treatment duration 2 months, mean ± SEM",122 ± 4 mm Hg
same,SYSTOLIC BLOOD PRESSURE,"[1]; 50 μmol/kg of diet from age 6-7 weeks (prior to renal complications), treatment duration 3 months, mean ± SEM",122 ± 4 mm Hg
same,SYSTOLIC BLOOD PRESSURE,"[1]; 50 μmol/kg of diet from age 6-7 weeks (prior to renal complications), treatment duration 4 months, mean ± SEM",126 ± 6 mm Hg
same,SYSTOLIC BLOOD PRESSURE,"[1]; 50 μmol/kg of diet from age 6-7 weeks (prior to renal complications), treatment duration 5 months, mean ± SEM",131 ± 4 mm Hg
same,SYSTOLIC BLOOD PRESSURE,"[1]; 50 μmol/kg of diet from age 6-7 weeks (prior to renal complications), treatment duration 6 months, mean ± SEM",128 ± 3 mm Hg
same,SYSTOLIC BLOOD PRESSURE,"[1]; 50 μmol/kg of diet from age 6-7 weeks (prior to renal complications), treatment duration 7 months, mean ± SEM",125 ± 6 mm Hg
same,SYSTOLIC BLOOD PRESSURE,"[1]; 50 μmol/kg of diet from age 6-7 weeks (prior to renal complications), treatment duration 8 months, mean ± SEM",133 ± 5 mm Hg
same,SYSTOLIC BLOOD PRESSURE,"[1]; 50 μmol/kg of diet from age 6-7 weeks (prior to renal complications), treatment duration 9 months, mean ± SEM",143 ± 4 mm Hg
same,SYSTOLIC BLOOD PRESSURE,"[1]; 50 μmol/kg of diet started once renal complications established (after 4 months), treatment duration 0 months, mean ± SEM",146 ± 4 mm Hg
same,SYSTOLIC BLOOD PRESSURE,"[1]; 50 μmol/kg of diet started once renal complications established (after 4 months), treatment duration 1 month, mean ± SEM",140 ± 5 mm Hg
same,SYSTOLIC BLOOD PRESSURE,"[1]; 50 μmol/kg of diet started once renal complications established (after 4 months), treatment duration 2 months, mean ± SEM",134 ± 3 mm Hg
same,SYSTOLIC BLOOD PRESSURE,"[1]; 50 μmol/kg of diet started once renal complications established (after 4 months), treatment duration 3 months, mean ± SEM",144 ± 3 mm Hg
same,SYSTOLIC BLOOD PRESSURE,"[1]; 50 μmol/kg of diet started once renal complications established (after 4 months), treatment duration 4 months, mean ± SEM",139 ± 3 mm Hg
same,SYSTOLIC BLOOD PRESSURE,"[1]; 50 μmol/kg of diet started once renal complications established (after 4 months), treatment duration 5 months, mean ± SEM",146 ± 6 mm Hg
same,SYSTOLIC BLOOD PRESSURE,"[1]; 50 μmol/kg of diet started once renal complications established (after 4 months), treatment duration −1 month (before start of drug), mean ± SEM",141 ± 6 mm Hg
same,SYSTOLIC BLOOD PRESSURE,"[1]; 50 μmol/kg of diet started once renal complications established (after 4 months), treatment duration −2 months (before start of drug), mean ± SEM",138 ± 7 mm Hg
same,SYSTOLIC BLOOD PRESSURE,"[1]; 50 μmol/kg of diet started once renal complications established (after 4 months), treatment duration −3 months (before start of drug), mean ± SEM",123 ± 5 mm Hg
same,SYSTOLIC BLOOD PRESSURE,"[1]; 50 μmol/kg of diet started once renal complications established (after 4 months), treatment duration −4 months (before start of drug), mean ± SEM",106 ± 3 mm Hg
same,SYSTOLIC BLOOD PRESSURE,[1]; drug treatment commenced after proteinuria had become established,prevented from rising further
same,rate of development of proteinuria,[2]; [4],markedly reduced
same,URINARY PROTEIN CONCENTRATION,[2]; treatment duration 0 months,226 ± 15 µg/h
same,URINARY PROTEIN CONCENTRATION,[2]; treatment duration 1 month,373 ± 22 µg/h
same,URINARY PROTEIN CONCENTRATION,[2]; treatment duration 2 months,402 ± 22 µg/h
same,URINARY PROTEIN CONCENTRATION,[2]; treatment duration 3 months,221 ± 32 µg/h
same,URINARY PROTEIN CONCENTRATION,[2]; treatment duration 4 months,376 ± 54 µg/h
same,URINARY PROTEIN CONCENTRATION,[2]; treatment duration 5 months,1573 ± 105 µg/h
same,URINARY PROTEIN CONCENTRATION,[2]; treatment duration 6 months,1585 ± 147 µg/h
same,URINARY PROTEIN CONCENTRATION,[2]; treatment duration 7 months,2124 ± 293 µg/h
